The source of these data is patent US9718804B2, “GSK-3 inhibitors” (BRISTOL-MYERS SQUIBB COMPANY, priority 2013, dated 2017).

Like-named read-outs stand apart in the source and are kept apart here.

One assay concerns the target GSK3β (Homo sapiens, UniProt P49841). The assay is described as follows: GSK3β kinase assay (Caliper LabChip, fluoresceinated peptide substrate). It counts as biochemical. An outline of the steps:
(§1)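 Readout: electrophoretic resolution of phosphorylated from unphosphorylated peptide on a LabChip3000. Reactions incubated 20 h at room temperature before termination with 35 mM EDTA. Eleven-concentration curves gave IC50 via non-linear regression.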

The test system of the next assay is pTau. The assay is described as follows: pTau assay (no method described). Type of assay: cell-based.
In a further assay the target is GSK3α (Homo sapiens, UniProt P49840). The assay can be described thus: GSK3α kinase assay (Caliper LabChip, fluoresceinated peptide substrate). Type of assay: biochemical. Put shortly:
as §1

Setting [1] is: first value of the cell, 250 pM enzyme, 20 uM ATP, 20 hours at room temperature, read-out: GSK3β/α (nM): GSK3β IC50.

Chain of GSK3β (P49841 whole entry, species assumed): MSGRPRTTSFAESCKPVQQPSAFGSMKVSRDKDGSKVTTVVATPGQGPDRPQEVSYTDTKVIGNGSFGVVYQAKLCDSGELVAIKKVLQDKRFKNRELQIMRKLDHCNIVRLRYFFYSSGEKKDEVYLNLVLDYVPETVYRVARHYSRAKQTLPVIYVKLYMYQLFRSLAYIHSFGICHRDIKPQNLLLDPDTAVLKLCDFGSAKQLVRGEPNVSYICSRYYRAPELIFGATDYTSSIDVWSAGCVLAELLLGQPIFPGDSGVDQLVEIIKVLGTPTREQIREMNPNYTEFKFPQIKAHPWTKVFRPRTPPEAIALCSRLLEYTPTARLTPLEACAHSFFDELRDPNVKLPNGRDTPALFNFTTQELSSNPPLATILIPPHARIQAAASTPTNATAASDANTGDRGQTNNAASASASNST
Chain of GSK3α (P49840 whole entry, species assumed): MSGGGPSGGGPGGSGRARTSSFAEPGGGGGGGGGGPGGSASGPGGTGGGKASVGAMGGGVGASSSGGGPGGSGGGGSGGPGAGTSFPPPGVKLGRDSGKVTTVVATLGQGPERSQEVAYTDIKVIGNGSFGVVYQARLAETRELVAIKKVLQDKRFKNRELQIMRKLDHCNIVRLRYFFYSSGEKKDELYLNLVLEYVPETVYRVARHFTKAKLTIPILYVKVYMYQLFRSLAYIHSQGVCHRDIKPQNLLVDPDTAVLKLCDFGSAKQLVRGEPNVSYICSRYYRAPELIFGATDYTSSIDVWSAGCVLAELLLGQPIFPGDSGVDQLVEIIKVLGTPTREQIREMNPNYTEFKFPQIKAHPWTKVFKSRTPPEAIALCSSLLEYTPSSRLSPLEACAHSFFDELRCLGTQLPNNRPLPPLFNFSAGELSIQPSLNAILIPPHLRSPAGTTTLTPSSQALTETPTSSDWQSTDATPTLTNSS

In the case of `O=C(Nc1cncc(-c2ccccc2F)c1)c1ccnc(Nc2ccc3ccccc3n2)c1` [Example 142, N-(5-(2-Fluorophenyl)pyridin-3-yl)-2-(quinolin-2-ylamino)isonicotinamide], the IC50 at GSK3β (setting [1]) amounted to 23 nM; in the assay on pTau, 2100 nM; at GSK3α, 5.6 nM.

For the compound `Cc1ccc(Nc2cc(C(=O)Nc3cncc(-c4ccccc4F)c3)ccn2)nc1C` [Example 143, 2-((5,6-Dimethylpyridin-2-yl)amino)-N-(5-(2-fluorophenyl)pyridin-3-yl)isonicotinamide], the IC50 worked out at 8.7 nM at GSK3β, 2800 nM in the assay with pTau and 6 nM against GSK3α.

Take `O=C(Nc1cncc(-c2ccccc2)c1)c1ccnc(Nc2cccc(C(F)(F)F)n2)c1` [Example 144, N-(5-Phenylpyridin-3-yl)-2-((6-(trifluoromethyl)pyridin-2-yl)amino)isonicotinamide]: the IC50 on GSK3β (setting [1]) was found to be 10 nM; in the assay on pTau it was 910 nM; on GSK3α, 39 nM.

As for `O=C(Nc1cncc(-c2ccccc2Cl)c1)c1ccnc(Nc2cccc(C(F)(F)F)n2)c1` [Example 145, N-(5-(2-Chlorophenyl)pyridin-3-yl)-2-((6-(trifluoromethyl)pyridin-2-yl)amino)isonicotinamide], the IC50 on GSK3β (setting [1]) amounted to 6.4 nM; in the assay with pTau, 730 nM; against GSK3α, 4.4 nM.

As for `O=C(Nc1cncc(-c2cc(F)ccc2F)c1)c1ccnc(Nc2cccc(C(F)(F)F)n2)c1` [Example 146, N-(5-(2,5-Difluorophenyl)pyridin-3-yl)-2-((6-(trifluoromethyl)pyridin-2-yl)amino)isonicotinamide], the values for the IC50 on GSK3β (setting [1]), in the assay on pTau and on GSK3α were 5.1 nM, 1400 nM and 3.2 nM, respectively.

For `O=C(Nc1cncc(-c2cccc(F)c2F)c1)c1ccnc(Nc2cccc(C(F)(F)F)n2)c1` [Example 147, N-(5-(2,3-Difluorophenyl)pyridin-3-yl)-2-((6-(trifluoromethyl)pyridin-2-yl)amino)isonicotinamide], the IC50 on GSK3β (setting [1]) came out at 2.3 nM; in the assay on pTau it was 380 nM; against GSK3α it was 44 nM.

As to `COc1ccc(Nc2cc(C(=O)Nc3cncc(-c4ccccc4F)c3)ccn2)nc1OC` [Example 151, 2-((5,6-Dimethoxypyridin-2-yl)amino)-N-(5-(2-fluorophenyl)pyridin-3-yl)isonicotinamide], the IC50 on GSK3β (setting [1]) stood at 6 nM; with pTau it was 510 nM; at GSK3α, 2.4 nM.

Take `N#Cc1cccc(Nc2cc(C(=O)Nc3cncc(-c4ccccc4F)c3)ccn2)n1` [Example 152, 2-((6-Cyanopyridin-2-yl)amino)-N-(5-(2-fluorophenyl)pyridin-3-yl)isonicotinamide]: the results for the IC50 on GSK3β (setting [1]), in the assay with pTau and against GSK3α were 1.6 nM, 260 nM and 0.87 nM, respectively.

Take `O=C(Nc1cncc(-c2ccccc2F)c1)c1ccnc(Nc2ccc3cnccc3n2)c1` [Example 153, 2-((1,6-Naphthyridin-2-yl)amino)-N-(5-(2-fluorophenyl)pyridin-3-yl)isonicotinamide]: the figures for the IC50 on GSK3β (setting [1]), with pTau and against GSK3α were 1.5 nM, 200 nM and 0.45 nM, respectively.

On to `CC(C)(C)C(=O)Nc1cccc(Nc2cc(C(=O)Nc3cncc(-c4ccccc4F)c3)ccn2)n1` [Example 154, N-(5-(2-Fluorophenyl)pyridin-3-yl)-2-((6-pivalamidopyridin-2-yl)amino)isonicotinamide], for which the IC50 at GSK3β (setting [1]) amounted to 9.2 nM; in the assay with pTau, 1100 nM; on GSK3α it was 2.2 nM.

In the case of `Cc1nc(Nc2cc(C(=O)Nc3cncc(-c4ccccc4F)c3)ccn2)ccc1C#N` [Example 155, 2-((5-Cyano-6-methylpyridin-2-yl)amino)-N-(5-(2-fluorophenyl)pyridin-3-yl)isonicotinamide], the IC50 on GSK3β (setting [1]) was determined as 3.6 nM; with pTau, 570 nM; at GSK3α it was 1.2 nM.

Regarding `NS(=O)(=O)c1ccc(Nc2cc(C(=O)Nc3cncc(-c4ccccc4F)c3)ccn2)nc1` [Example 156, N-(5-(2-Fluorophenyl)pyridin-3-yl)-2-((5-sulfamoylpyridin-2-yl)amino)isonicotinamide], the IC50 was determined as 3 nM at GSK3β (setting [1]), 5600 nM in the assay on pTau and 1.6 nM on GSK3α.

For `CN(C)S(=O)(=O)c1ccc(Nc2cc(C(=O)Nc3cncc(-c4ccccc4F)c3)ccn2)nc1` [Example 157, 2-((5-(N,N-Dimethylsulfamoyl)pyridin-2-yl)amino)-N-(5-(2-fluorophenyl)pyridin-3-yl)isonicotinamide], the results for the IC50 on GSK3β (setting [1]), in the assay with pTau and against GSK3α were 3.6 nM, 750 nM and 1.6 nM, respectively.

In the case of `CC(=O)c1ccc(Nc2cc(C(=O)Nc3cncc(-c4ccccc4F)c3)ccn2)nc1` [Example 158, 2-((5-Acetylpyridin-2-yl)amino)-N-(5-(2-fluorophenyl)pyridin-3-yl)isonicotinamide], the IC50 on GSK3β (setting [1]) was 6 nM; with pTau it was 690 nM; at GSK3α, 3 nM.

On to `O=C(Nc1cncc(-c2ccccc2F)c1)c1ccnc(Nc2ccc(S(=O)(=O)N3CCCCC3)cn2)c1` [Example 159, N-(5-(2-Fluorophenyl)pyridin-3-yl)-2-((5-(piperidin-1-ylsulfonyl)pyridin-2-yl)amino)isonicotinamide], for which the values for the IC50 against GSK3β, with pTau and at GSK3α were 3.9 nM, 960 nM and 1.9 nM, respectively.

As to `N#CC1(c2ccc(Nc3cc(C(=O)Nc4cncc(-c5ccccc5F)c4)ccn3)nc2)CC1` [Example 163, 2-((5-(1-Cyanocyclopropyl)pyridin-2-yl)amino)-N-(5-(2-fluorophenyl)pyridin-3-yl)isonicotinamide], the IC50 at GSK3β (setting [1]) is 3.2 nM; with pTau, 610 nM; against GSK3α, 1.1 nM.

Turning to `CC(C)(C#N)c1ccc(Nc2cc(C(=O)Nc3cncc(-c4ccccc4F)c3)ccn2)nc1` [Example 164, 2-((5-(2-Cyanopropan-2-yl)pyridin-2-yl)amino)-N-(5-(2-fluorophenyl)pyridin-3-yl)isonicotinamide], the values for the IC50 on GSK3β (setting [1]), with pTau and against GSK3α were 4.9 nM, 3100 nM and 2.4 nM, respectively.

Consider `N#Cc1cccc(Nc2cc(C(=O)Nc3cncc(-c4ccc(C#N)c(F)c4)c3)ccn2)n1` [Example 165, N-(5-(4-Cyano-3-fluorophenyl)pyridin-3-yl)-2-((6-cyanopyridin-2-yl)amino)isonicotinamide], for which the results for the IC50 at GSK3β (setting [1]), in the assay with pTau and on GSK3α were 1.2 nM, 84 nM and 0.4 nM, respectively.

For `N#Cc1cccc(Nc2cc(C(=O)Nc3cncc(-c4cccc(F)c4C#N)c3)ccn2)n1` [Example 166, N-(5-(2-Cyano-3-fluorophenyl)pyridin-3-yl)-2-((6-cyanopyridin-2-yl)amino)isonicotinamide], the IC50 at GSK3β (setting [1]) worked out at 0.91 nM; with pTau, 390 nM; on GSK3α, 0.28 nM.

Turning to `O=C(Nc1cnccc1-c1ccccc1)c1cc(Nc2ccc(C(F)(F)F)cn2)ncc1F` [Example 167, 5-Fluoro-N-(4-phenylpyridin-3-yl)-2-((5-(trifluoromethyl)pyridin-2-yl)amino)isonicotinamide], the IC50 on GSK3β (setting [1]) is 1.8 nM; in the assay on pTau, 230 nM; on GSK3α it was 0.55 nM.

As for `O=C(Nc1cnccc1OCC(F)(F)F)c1ccnc(Nc2ccc(C(F)(F)F)cn2)c1F` [Example 169, 3-Fluoro-N-(4-(2,2,2-trifluoroethoxy)pyridin-3-yl)-2-((5-(trifluoromethyl)pyridin-2-yl)amino)isonicotinamide], the IC50 was 28 nM at GSK3β (setting [1]), 3900 nM in the assay with pTau and 10 nM against GSK3α.

`CCCSc1ccncc1NC(=O)c1ccnc(Nc2ccc(C(F)(F)F)cn2)c1` [Example 170, N-(4-(Propylthio)pyridin-3-yl)-2-((5-(trifluoromethyl)pyridin-2-yl)amino)isonicotinamide]: the IC50 came out at 0.75 nM at GSK3β (setting [1]), 49 nM in the assay on pTau and 0.21 nM on GSK3α.

For `O=C(Nc1cnccc1SCC(F)(F)F)c1ccnc(Nc2ccc(C(F)(F)F)cn2)c1` [Example 171, N-(4-((2,2,2-Trifluoroethyl)thio)pyridin-3-yl)-2-((5-(trifluoromethyl)pyridin-2-yl)amino)isonicotinamide], the IC50 was found to be 1.2 nM on GSK3β (setting [1]), 47 nM with pTau and 0.61 nM at GSK3α.

In the case of `O=C(Nc1cnccc1Sc1ccccc1)c1ccnc(Nc2ccc(C(F)(F)F)cn2)c1` [Example 172, N-(4-(Phenylthio)pyridin-3-yl)-2-((5-(trifluoromethyl)pyridin-2-yl)amino)isonicotinamide], the IC50 came to 5.6 nM at GSK3β (setting [1]), 240 nM with pTau and 1.1 nM against GSK3α.

`CC(C)Sc1ccncc1NC(=O)c1ccnc(Nc2ccc(C(F)(F)F)cn2)c1` [Example 173, N-(4-(Isopropylthio)pyridin-3-yl)-2-((5-(trifluoromethyl)pyridin-2-yl)amino)isonicotinamide]: the IC50 on GSK3β (setting [1]) was determined as 0.52 nM; with pTau, 48 nM; on GSK3α it was 0.19 nM.

Regarding `CC(C)(C)Sc1ccncc1NC(=O)c1ccnc(Nc2ccc(C(F)(F)F)cn2)c1` [Example 174, N-(4-(tert-Butylthio)pyridin-3-yl)-2-((5-(trifluoromethyl)pyridin-2-yl)amino)isonicotinamide], the results for the IC50 on GSK3β (setting [1]), with pTau and at GSK3α were 0.14 nM, 27 nM and 0.08 nM, respectively.

As to `CC(C)CSc1ccncc1NC(=O)c1ccnc(Nc2ccc(C(F)(F)F)cn2)c1` [Example 175, N-(4-(Isobutylthio)pyridin-3-yl)-2-((5-(trifluoromethyl)pyridin-2-yl)amino)isonicotinamide], the IC50 is 1.1 nM on GSK3β (setting [1]), 78 nM in the assay with pTau and 0.4 nM at GSK3α.

With `O=C(Nc1cnc(Cl)cc1SC1CC1)c1ccnc(Nc2ccc(C(F)(F)F)cn2)c1` [Example 176, N-(6-Chloro-4-(cyclopropylthio)pyridin-3-yl)-2-((5-(trifluoromethyl)pyridin-2-yl)amino)isonicotinamide], the IC50 turned out to be 11 nM at GSK3β (setting [1]), 1100 nM in the assay on pTau and 7 nM against GSK3α.
